Measurements as given in ChEMBL document CHEMBL2021806, “GnRH-III based multifunctional drug delivery systems containing daunorubicin and methotrexate” (Eur J Med Chem, 2012).
Activity calls are given as the source filed them. The rule behind the calls is not given here.

Columns and labels:
[1] = test system: LNCaP; assay: Cytostatic activity against human LNCAP cells after 4 days by MTT assay; format: functional, cell-based; details: 96 h
[2] = test system: MONO-MAC-6; assay: Antiproliferative activity against human MONO-MAC-6 cells assessed as cell viability at 10^-6 M after 48 hrs by cell counting method relative to untreated control; format: functional
[3] = test system: HT-29; assay: Cytostatic activity against human HT-29 cells after 4 days by MTT assay; format: functional, cell-based; details: HT-29, 96 h
[4] = test system: MONO-MAC-6; assay: Antiproliferative activity against human MONO-MAC-6 cells assessed as inhibition of cell viability at 10^-8 M after 72 hrs by cell counting method; format: functional; details: MONO-MAC-6, 72 h, values are per cent of control
[5] = test system: MONO-MAC-6; assay: Antiproliferative activity against human MONO-MAC-6 cells assessed as inhibition of cell viability at 10^-8 M after 24 hrs by cell counting method; format: functional; details: MONO-MAC-6, 24 h, values are per cent of control
[6] = test system: MONO-MAC-6; assay: Antiproliferative activity against human MONO-MAC-6 cells assessed as inhibition of cell viability at 10^-6 M after 72 hrs by cell counting method; format: functional; details: MONO-MAC-6, 72 h, values are per cent of control
[7] = Drug metabolism in rat lysosomal homogenate assessed as H-Lys(MTX)HDWK(Dau=Aoa)P-OH formation at 0.1 ug/ul after 24 hrs by LC-MS analysis; format: ADME, tissue-based, Lysosome; details: tissue homogenate
[8] = test system: MONO-MAC-6; assay: Antiproliferative activity against human MONO-MAC-6 cells assessed as inhibition of cell viability at 10^-7 M after 72 hrs by cell counting method; format: functional; details: MONO-MAC-6, 72 h, values are per cent of control
[9] = test system: MONO-MAC-6; assay: Induction of adhesion in human MONO-MAC-6 cells at 10^-7 to 10^-6 M after 24 hrs by electrical impedence method relative to control; format: functional, cell-based
[10] = test system: MONO-MAC-6; assay: Antiproliferative activity against human MONO-MAC-6 cells assessed as inhibition of cell viability at 10^-9 M after 72 hrs by cell counting method; format: functional; details: MONO-MAC-6, 72 h, values are per cent of control
[11] = test system: MONO-MAC-6; assay: Antiproliferative activity against human MONO-MAC-6 cells assessed as inhibition of cell viability at 10^-9 M after 48 hrs by cell counting method; format: functional; details: MONO-MAC-6, 48 h, values are per cent of control
[12] = test system: MONO-MAC-6; assay: Antiproliferative activity against human MONO-MAC-6 cells assessed as inhibition of cell viability at 10^-8 M after 48 hrs by cell counting method; format: functional; details: MONO-MAC-6, 48 h, values are per cent of control
[13] = test system: MONO-MAC-6; assay: Antiproliferative activity against human MONO-MAC-6 cells assessed as inhibition of cell viability at 10^-9 M after 24 hrs by cell counting method; format: functional; details: MONO-MAC-6, 24 h, values are per cent of control
[14] = test system: MONO-MAC-6; assay: Antiproliferative activity against human MONO-MAC-6 cells assessed as inhibition of cell viability at 10^-6 M after 48 hrs by cell counting method; format: functional; details: MONO-MAC-6, 48 h, values are per cent of control
[15] = test system: MCF7; assay: Cytostatic activity against human MCF7 cells after 4 days by MTT assay; format: functional, cell-based; details: MCF7, 96 h
[16] = test system: Serum; assay: Metabolic stability in human serum at 10 uM after 24 hrs by LC-MS analysis; format: ADME, cell-free
[17] = test system: MONO-MAC-6; assay: Antiproliferative activity against human MONO-MAC-6 cells assessed as cell viability at 10^-6 M after 72 hrs by cell counting method relative to untreated control; format: functional
[18] = test system: MONO-MAC-6; assay: Antiproliferative activity against human MONO-MAC-6 cells assessed as inhibition of cell viability at 10^-6 M after 24 hrs by cell counting method; format: functional; details: MONO-MAC-6, 24 h, values are per cent of control
[19] = test system: MONO-MAC-6; assay: Antiproliferative activity against human MONO-MAC-6 cells assessed as cell viability at 10^-6 M after 24 hrs by cell counting method relative to untreated control; format: functional
[20] = test system: MONO-MAC-6; assay: Induction of adhesion in human MONO-MAC-6 cells at 10^-9 M after 24 hrs by electrical impedence method relative to control; format: functional
[21] = test system: MONO-MAC-6; assay: Antiproliferative activity against human MONO-MAC-6 cells assessed as inhibition of cell viability at 10^-7 M after 24 hrs by cell counting method; format: functional; details: MONO-MAC-6, 24 h, values are per cent of control
[22] = test system: MONO-MAC-6; assay: Antiproliferative activity against human MONO-MAC-6 cells assessed as inhibition of cell viability at 10^-7 M after 48 hrs by cell counting method; format: functional; details: MONO-MAC-6, 48 h, values are per cent of control
[23] = test system: MONO-MAC-6; assay: Antiproliferative activity against human MONO-MAC-6 cells assessed as cell viability at 10^-9 to 10^-6 M after 72 hrs by cell counting method relative to untreated control; format: functional
[24] = test system: MONO-MAC-6; assay: Induction of adhesion in human MONO-MAC-6 cells at 10^-7 M after 1.5 hrs by electrical impedence method relative to control; format: functional
[25] = test system: MONO-MAC-6; assay: Antiproliferative activity against human MONO-MAC-6 cells assessed as cell viability at 10^-7 M after 24 hrs by cell counting method relative to untreated control; format: functional
[26] = test system: MONO-MAC-6; assay: Antiproliferative activity against human MONO-MAC-6 cells assessed as cell viability at 10^-9 to 10^-6 M after 48 hrs by cell counting method relative to untreated control; format: functional
[27] = test system: MONO-MAC-6; assay: Induction of adhesion in human MONO-MAC-6 cells at 10^-8 to 10^-6 M after 24 hrs by electrical impedence method relative to control; format: functional
[28] = Antitumor activity against mouse C26 cells allografted in Balb/C mouse assessed as tumor growth inhibition; format: functional
[29] = Drug metabolism in rat lysosomal homogenate assessed as large peptide fragment EHWK(MTX)HDWK(Ac)-OH formation at 0.1 ug/ul after 24 hrs by LC-MS analysis; format: ADME, tissue-based, Lysosome; details: tissue homogenate
[30] = test system: Serum; assay: Metabolic stability in human serum at 10 uM after 24 hrs by RP-HPLC analysis; format: ADME, cell-free

Row | SMILES | IC50 [1] | IC50 [3] | viability, % of control at 0.01 µM [4] | viability, % of control at 0.01 µM [5] | viability, % of control at 1 µM [6] | viability, % of control at 0.1 µM [8] | viability, % of control at 0.001 µM [10] | viability, % of control at 0.001 µM [11] | viability, % of control at 0.01 µM [12] | viability, % of control at 0.001 µM [13] | viability, % of control at 1 µM [14] | IC50 [15] | viability, % of control at 1 µM [18] | viability, % of control at 0.1 µM [21] | viability, % of control at 0.1 µM [22] | also measured
1 | COc1cccc2c1C(=O)c1c(O)c3c(c(O)c1C2=O)C[C@@](O)(/C(C)=N/OCC(=O)NCCCC[C@H](NC(=O)[C@H](CCC(=O)O)NC(=O)c1ccc(N(C)Cc2cnc4nc(N)nc(N)c4n2)cc1)C(=O)NCCCC[C@H](NC(=O)[C@H](Cc1c[nH]c2ccccc12)NC(=O)[C@H](CC(=O)O)NC(=O)[C@H](Cc1cnc[nH]1)NC(=O)[C@H](CO)NC(=O)[C@H](Cc1c[nH]c2ccccc12)NC(=O)[C@H](Cc1cnc[nH]1)NC(=O)[C@@H]1CCC(=O)N1)C(=O)N1CCC[C@H]1C(=O)NCC(N)=O)C[C@@H]3O[C@H]1C[C@H](N)[C@H](O)[C@H](C)O1 | 11.3 µM | 5.6 µM | 97% | 128% | 38% | 94% | 99% | 93% | 91% | 116% | 63% | 5.4 µM | 82% | 105% | 97% | Ratio [2]: 0.9; Drug metabolism [7]: Active; Activity [9]: inactive; Stability [16]: Stable; Ratio [17]: 0.77; Ratio [19]: 1; Activity [20]: 77.6%
2 | COc1cccc2c1C(=O)c1c(O)c3c(c(O)c1C2=O)C[C@@](O)(C(C)=O)C[C@@H]3O[C@H]1C[C@H](N)[C@H](O)[C@H](C)O1 [DAUNORUBICIN] | 0.1 µM | 0.2 µM | 17% | 95% | 16% | 14% | 21% | 36% | 35% | 97% | 27% | 0.4 µM | 46% | 59% | 26% | Ratio [23]: 0.49; Activity [24]: 142%; Ratio [25]: 0.85; Ratio [26]: 0.45; Activity [27]: 121%; growth inhibition (GI) [28]: 24.4%
3 | CC(=O)NCCCC[C@H](NC(=O)[C@H](Cc1c[nH]c2ccccc12)NC(=O)[C@H](CC(=O)O)NC(=O)[C@H](Cc1cnc[nH]1)NC(=O)[C@H](CCCCNC(=O)[C@H](CCC(=O)O)NC(=O)c1ccc(N(C)Cc2cnc3nc(N)nc(N)c3n2)cc1)NC(=O)[C@H](Cc1c[nH]c2ccccc12)NC(=O)[C@H](Cc1cnc[nH]1)NC(=O)[C@@H]1CCC(=O)N1)C(=O)N1CCC[C@H]1C(=O)NCC(N)=O | > 50 µM | > 50 µM | – | – | – | – | – | – | – | – | – | > 50 µM | – | – | – | Drug metabolism [29]: Active; Stability [30]: Stable
